Measured values as given in patent US20250215028A1, “SYNTHETIC GLYCEROPHOSPHOLIPIDS COMPRISING AT LEAST ONE REACTIVE FUNCTION, PROCESS FOR PREPARING SAME AND USES THEREOF IN DIFFERENT APPLICATIONS” (UNIVERSITE DE ROUEN-NORMANDIE, priority 2022, published 2025).

Columns and labels:
[1] = Formation of giant liposomes (96% DOPC / 4% GPL) by PVA-assisted swelling, light and confocal microscopy; assay type: physicochemical; conditions: liposomes 96% by mass DOPC and 4% by mass GPL, 1 mM, FIG. 3 and 4
Method: (§1) For this purpose, giant liposomes composed of 96% by mass of dioleoylphosphatidylcholine (DOPC) and 4% by mass of GPL (XIVa), and, for comparative purposes, giant liposomes composed of 96% by mass of dioleoylphosphatidylcholine (DOPC) and 4% by mass of a natural GPL modified with a nitrobenzadiazole-based fluorophore: PA 18:1-6:0 NBD sold under the reference 810175C by Avanti Polar Lipids, at a concentration of 1 mM, are prepared using the polyvinyl alcohol (PVA)-assisted swelling method as described in Carmon et al., FASEB J., 2020, 34:6769-6790).

CgA-AF633 = biological target: T1, CgA-AF633 (Homo sapiens, UniProt P10645); experiment: Interaction of CgA-AF633 protein with giant liposomes containing GPL (confocal microscopy); assay type: binding; conditions: CgA-AF633 4 μM, liposomes 96% DOPC / 4% GPL, FIG. 5
T1 sequence (P10645 19-457): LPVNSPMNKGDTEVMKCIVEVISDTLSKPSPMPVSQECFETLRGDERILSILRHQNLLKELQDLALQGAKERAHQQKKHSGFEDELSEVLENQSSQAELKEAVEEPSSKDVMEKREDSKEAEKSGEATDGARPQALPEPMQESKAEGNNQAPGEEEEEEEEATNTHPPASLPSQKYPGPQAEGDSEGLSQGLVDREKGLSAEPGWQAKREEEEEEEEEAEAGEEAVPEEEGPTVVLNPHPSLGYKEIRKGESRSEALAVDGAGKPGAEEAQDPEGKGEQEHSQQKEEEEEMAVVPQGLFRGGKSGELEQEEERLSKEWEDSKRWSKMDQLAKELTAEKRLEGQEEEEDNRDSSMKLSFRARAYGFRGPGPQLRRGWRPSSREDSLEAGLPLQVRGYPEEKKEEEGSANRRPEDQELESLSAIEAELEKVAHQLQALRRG
Source text: This example illustrates the interaction between GPL (XIVa), which fluoresces green (by means of a nitrobenzadiazole-based fluorophore), and a red-fluorescent phosphatidic acid (PA) mobilizing protein, CgA-AF633.
as §1
CgA, rendered red-fluorescent due to its coupling with the fluorophore Alexa 633 or AF633 (CgA-AF633), is incubated at 4 μM concentration with liposomes as prepared above. […]

Spo20p-GFP = biological target: T2, Spo20p-GFP (Saccharomyces cerevisiae, UniProt Q04359); experiment: Recruitment of Spo20p-GFP to the plasma membrane of PC12 cells after incubation with GPL (confocal microscopy); assay type: cell-based; conditions: GPL 100 μM, 5 min incubation, PC12 cells expressing Spo20p-GFP, FIG. 1
T2 construct: expressed in transfected cells; host or cells: PC12 cells
T2 sequence (Q04359 51-91 limits assumed): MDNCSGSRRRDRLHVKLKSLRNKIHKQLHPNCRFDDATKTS
Method: This example illustrates the interaction between GPL (Ia) or (Ib) and a phosphatidic acid (PA) mobilizing protein, the green-fluorescent protein Spo20p-GFP, expressed in target cells.
For this purpose, GPL (Ia) and, for comparative purposes, a natural GPL PA 18:1-18:0 (referred to hereinbelow as GPL C1) sold under reference 840861C by Avanti Polar Lipids, are incubated for 5 min at a concentration of 100 μM, with PC12 cells expressing Spo20p-GFP.
Similarly, GPL (Ib) and, for comparative purposes, a natural GPL PA 18:2-18:0 (referred to hereinbelow as GPL C2) sold under reference 840862C by Avanti Polar Lipids, are incubated for 5 min at a concentration of 100 μM, with PC12 cells expressing Spo20p-GFP.
The GPL-free cell medium is used as a control (referred to hereinbelow as […]).
A marker referred to hereinbelow as Membright (obtained from Mayeul Collot UMR-7021, Strasbourg) is incubated for 5 minutes on cells in media as prepared above to specifically mark the cells' plasma membrane.

## CCCCCCCC/C=C\CCCCCCCC(=O)O[C@@H](COP(=O)(O)O)[C@H](Cn1nnc2c1-c1ccccc1CN(C(=O)CCCCCNc1ccc([N+](=O)[O-])c3nonc13)c1ccccc1-2)OC(=O)CCCCCCCCCCCCCCCCC [GPL (XIVa), (2S,3S)-4-(8-(6-((7-nitrobenzo[c][1,2,5]oxadiazol-4-yl)amino)hexanoyl)-8,9-dihydro-1H-dibenzo[b,f][1,2,3]triazolo[4,5-d]azocin-1-yl)-1-(phosphonooxy)-3-(stearoyloxy)butan-2-yl oleate]
[1]
  participation in the formation of giant liposomes: participates in the formation of giant liposomes
CgA-AF633
  interaction of the CgA-AF633 protein with liposomes containing the GPL: only interacts with liposomes containing GPL (XIVa)
  membrane deformations in the liposomes on incubation with CgA-AF633: does result in membrane deformations

## CCCCCCCC/C=C\CCCCCCCC(=O)O[C@@H](COP(=O)(O)O)[C@H](CN=[N+]=[N-])OC(=O)CCCCCCCCCCCCCCCCC [GPL (Ia), (2S,3S)-4-azido-2-(oleoyloxy)-3-(stearoyloxy)butyl hydrogen phosphate]
Spo20p-GFP
  recruitment of the Spo20p-GFP protein to the plasma membrane: bring about recruitment of the Spo20p-GFP protein to the plasma membrane of PC12 cells in the same manner as do the corresponding natural GPLs
